Values belong to the molecule of their own block, whether it stands above or below them. Active and inactive are the calls of the source.
Legend:
[1] = target: T1, Calpain-2 catalytic subunit (Sus scrofa, UniProt P43367); assay: m-calpain protease blockers, concentration series – biochemical, fluorogenic peptide substrate, dose response (AID 1420); format: functional
T1 sequence (P43367 whole entry): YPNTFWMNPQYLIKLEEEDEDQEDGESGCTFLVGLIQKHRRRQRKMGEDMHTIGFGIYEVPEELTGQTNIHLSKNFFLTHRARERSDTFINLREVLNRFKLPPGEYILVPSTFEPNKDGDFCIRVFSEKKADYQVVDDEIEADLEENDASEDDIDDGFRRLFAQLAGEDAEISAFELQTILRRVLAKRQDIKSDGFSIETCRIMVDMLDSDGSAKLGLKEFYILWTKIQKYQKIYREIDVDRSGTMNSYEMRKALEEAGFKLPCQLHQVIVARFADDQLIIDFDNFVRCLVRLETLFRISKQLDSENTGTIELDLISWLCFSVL

[2] = target: T2, Histone-lysine N-methyltransferase NSD2 (Homo sapiens, UniProt O96028); format: biochemical
T2 sequence (O96028 whole entry): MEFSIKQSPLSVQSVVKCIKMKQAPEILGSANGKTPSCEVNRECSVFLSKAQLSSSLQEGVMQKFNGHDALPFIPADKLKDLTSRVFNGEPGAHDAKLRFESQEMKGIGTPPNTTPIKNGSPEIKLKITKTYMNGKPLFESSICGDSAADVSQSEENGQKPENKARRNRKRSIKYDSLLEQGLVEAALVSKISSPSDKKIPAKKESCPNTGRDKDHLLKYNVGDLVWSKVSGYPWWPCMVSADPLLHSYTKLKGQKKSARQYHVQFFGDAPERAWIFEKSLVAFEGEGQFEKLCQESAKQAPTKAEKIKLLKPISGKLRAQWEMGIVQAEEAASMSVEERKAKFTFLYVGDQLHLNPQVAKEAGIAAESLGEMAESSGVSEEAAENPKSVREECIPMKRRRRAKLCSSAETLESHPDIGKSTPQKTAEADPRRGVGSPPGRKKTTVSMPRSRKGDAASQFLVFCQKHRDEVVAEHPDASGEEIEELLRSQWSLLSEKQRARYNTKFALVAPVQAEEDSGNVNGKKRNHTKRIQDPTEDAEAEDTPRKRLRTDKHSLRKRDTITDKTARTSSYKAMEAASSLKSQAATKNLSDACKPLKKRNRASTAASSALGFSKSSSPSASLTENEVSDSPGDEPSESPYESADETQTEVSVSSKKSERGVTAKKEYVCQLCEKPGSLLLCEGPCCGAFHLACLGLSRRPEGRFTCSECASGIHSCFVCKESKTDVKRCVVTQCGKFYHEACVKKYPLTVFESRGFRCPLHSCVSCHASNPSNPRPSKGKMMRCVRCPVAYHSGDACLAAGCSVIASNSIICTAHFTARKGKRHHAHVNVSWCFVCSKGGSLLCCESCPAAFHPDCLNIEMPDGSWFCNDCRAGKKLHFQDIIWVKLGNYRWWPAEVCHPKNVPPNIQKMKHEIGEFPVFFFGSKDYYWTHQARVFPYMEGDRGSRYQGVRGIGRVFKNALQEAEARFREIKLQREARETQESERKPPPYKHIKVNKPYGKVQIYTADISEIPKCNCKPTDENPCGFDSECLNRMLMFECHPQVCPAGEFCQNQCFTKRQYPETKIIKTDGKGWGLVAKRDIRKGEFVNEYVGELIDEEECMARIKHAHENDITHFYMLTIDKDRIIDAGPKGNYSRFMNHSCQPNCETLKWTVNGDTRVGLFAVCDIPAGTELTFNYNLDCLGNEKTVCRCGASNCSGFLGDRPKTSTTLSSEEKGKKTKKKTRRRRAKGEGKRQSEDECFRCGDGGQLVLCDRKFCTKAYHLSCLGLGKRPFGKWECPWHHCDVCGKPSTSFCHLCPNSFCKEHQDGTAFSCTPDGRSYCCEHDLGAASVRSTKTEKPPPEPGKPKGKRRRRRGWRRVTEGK

[3] = target: T3, Zinc finger protein mex-5 (Caenorhabditis elegans, UniProt Q9XUB2); assay: potency of MEX-5 RNA-binding blockers – biochemical, C. elegans, fluorescence polarization, dose response (AID 1960)
T3 sequence (Q9XUB2 whole entry): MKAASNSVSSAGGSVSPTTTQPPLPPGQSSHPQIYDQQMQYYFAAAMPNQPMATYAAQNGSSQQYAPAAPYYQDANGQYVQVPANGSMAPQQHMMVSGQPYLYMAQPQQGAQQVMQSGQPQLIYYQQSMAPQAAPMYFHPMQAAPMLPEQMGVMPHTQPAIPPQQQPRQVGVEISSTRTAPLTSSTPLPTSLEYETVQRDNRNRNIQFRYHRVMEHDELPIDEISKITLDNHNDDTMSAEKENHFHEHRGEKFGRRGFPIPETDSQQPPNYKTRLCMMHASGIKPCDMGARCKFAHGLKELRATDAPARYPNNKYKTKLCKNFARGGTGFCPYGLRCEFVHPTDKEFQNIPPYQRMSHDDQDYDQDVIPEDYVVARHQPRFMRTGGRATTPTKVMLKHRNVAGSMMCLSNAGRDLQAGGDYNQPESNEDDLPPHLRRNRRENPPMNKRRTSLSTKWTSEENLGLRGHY

[4] = target: T4, RNA-binding protein pos-1 (Caenorhabditis elegans, UniProt G5EF15); assay: disruptors of C. elegans POS-1 RNA interaction – biochemical, fluorescence polarization, dose response (AID 1964);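 note: purified POS-1 fused to maltose binding protein made in E. coli; potency of compounds blocking POS-1 binding to fluorescent RNA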
T4 sequence (G5EF15 whole entry): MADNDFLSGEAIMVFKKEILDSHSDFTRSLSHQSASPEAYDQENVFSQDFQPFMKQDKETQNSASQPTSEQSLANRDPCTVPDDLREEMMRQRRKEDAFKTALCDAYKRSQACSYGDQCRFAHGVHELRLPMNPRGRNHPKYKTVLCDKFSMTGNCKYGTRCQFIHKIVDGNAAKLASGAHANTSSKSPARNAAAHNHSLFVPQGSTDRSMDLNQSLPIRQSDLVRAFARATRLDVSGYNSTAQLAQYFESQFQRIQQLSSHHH

Cysteine protease ATG4B = target: T5, Cysteine protease ATG4B (Homo sapiens, UniProt Q9Y4P1); format: functional;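 note: Fluorescence-based dose-response confirmation assay measuring inhibition of ATG4B activity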
T5 sequence (Q9Y4P1 whole entry): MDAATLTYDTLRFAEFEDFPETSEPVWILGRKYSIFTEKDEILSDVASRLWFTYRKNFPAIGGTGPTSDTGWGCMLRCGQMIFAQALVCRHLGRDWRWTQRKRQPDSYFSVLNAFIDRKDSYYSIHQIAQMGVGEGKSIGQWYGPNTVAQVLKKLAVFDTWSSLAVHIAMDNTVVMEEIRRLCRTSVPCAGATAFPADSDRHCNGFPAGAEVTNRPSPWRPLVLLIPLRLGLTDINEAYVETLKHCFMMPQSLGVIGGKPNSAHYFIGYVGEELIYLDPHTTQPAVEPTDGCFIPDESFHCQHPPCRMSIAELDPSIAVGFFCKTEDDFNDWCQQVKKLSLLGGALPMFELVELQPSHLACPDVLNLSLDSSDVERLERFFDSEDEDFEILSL

Phospholipase A2 = Phospholipase A2 (Homo sapiens, UniProt P04054); format: functional;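 note: confirmatory dose-response counterscreen on phospholipase A2, testing hits that came from an ultra-high-throughput screen for ATG4B inhibitors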
[5] = target: Dual specificity protein phosphatase 3 (Homo sapiens, UniProt P51452); assay: VHR phosphatase inhibition, dose response, selectivity assay for STEP inhibitor project, biochemical (AID 602374); format: functional; settings: read-out: IC50_Mean
[6] = target: T6, Tyrosine-protein phosphatase non-receptor type 11 (Homo sapiens, UniProt Q06124); assay: PTPN11 enzyme inhibitors – biochemical, selectivity assay for STEP inhibitor project, dose response (AID 602367); format: functional; settings: read-out: IC50_Mean
T6 sequence (Q06124 whole entry): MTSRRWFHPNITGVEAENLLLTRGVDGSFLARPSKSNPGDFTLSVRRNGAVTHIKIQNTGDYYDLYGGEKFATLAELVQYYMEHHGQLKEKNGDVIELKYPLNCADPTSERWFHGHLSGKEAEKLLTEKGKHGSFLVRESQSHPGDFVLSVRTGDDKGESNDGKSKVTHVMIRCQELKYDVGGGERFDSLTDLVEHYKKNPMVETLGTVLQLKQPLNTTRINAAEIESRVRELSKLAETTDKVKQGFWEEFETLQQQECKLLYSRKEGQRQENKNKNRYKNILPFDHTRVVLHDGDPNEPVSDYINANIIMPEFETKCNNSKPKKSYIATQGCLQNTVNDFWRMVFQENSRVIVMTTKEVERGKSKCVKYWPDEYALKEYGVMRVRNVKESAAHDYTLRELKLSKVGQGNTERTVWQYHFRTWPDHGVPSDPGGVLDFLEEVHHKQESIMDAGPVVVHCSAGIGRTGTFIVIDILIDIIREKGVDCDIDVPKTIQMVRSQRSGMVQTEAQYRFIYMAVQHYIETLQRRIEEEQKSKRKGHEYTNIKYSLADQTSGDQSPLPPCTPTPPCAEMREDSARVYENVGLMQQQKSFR

[7] = target: T7, Tyrosine-protein phosphatase non-receptor type 5 (Homo sapiens, UniProt P54829); assay: PTPN5 enzyme inhibition – biochemical, fluorescence intensity, uHTS hits, confirmation (AID 602372); format: functional; settings: read-out: IC50_Mean
T7 sequence (P54829 whole entry): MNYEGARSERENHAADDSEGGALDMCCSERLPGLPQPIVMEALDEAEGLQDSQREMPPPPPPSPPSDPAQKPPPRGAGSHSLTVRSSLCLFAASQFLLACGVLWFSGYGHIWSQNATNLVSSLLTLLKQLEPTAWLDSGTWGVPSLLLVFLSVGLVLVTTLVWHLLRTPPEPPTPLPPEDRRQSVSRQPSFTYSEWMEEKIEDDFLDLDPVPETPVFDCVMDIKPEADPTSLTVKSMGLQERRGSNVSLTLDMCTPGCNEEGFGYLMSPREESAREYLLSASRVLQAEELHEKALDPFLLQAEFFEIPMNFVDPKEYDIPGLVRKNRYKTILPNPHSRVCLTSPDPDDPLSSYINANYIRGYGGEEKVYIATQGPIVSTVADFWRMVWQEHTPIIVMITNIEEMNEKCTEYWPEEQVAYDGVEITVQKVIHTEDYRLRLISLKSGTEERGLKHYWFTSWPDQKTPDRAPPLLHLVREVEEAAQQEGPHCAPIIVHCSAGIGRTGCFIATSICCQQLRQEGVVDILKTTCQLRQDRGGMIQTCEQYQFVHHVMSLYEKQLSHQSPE

Melanocortin receptor 4 = Melanocortin receptor 4 (Homo sapiens, UniProt P32245); format: functional, cell-based;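 note: Cell-based assay with luminescence read-out, confirmatory dose-response testing for agonist activity of biased ligands at MC4R; human U2OS cells with tagged receptor and beta-arrestin; potency of agonists that increase receptor coupling to beta-arrestin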
[8] = target: FAD-linked sulfhydryl oxidase ALR (Homo sapiens, UniProt P55789); assay: ALR-catalysed DTT oxidation blockers – biochemical, H2O2 detection, luminescence, cherry-pick, dose response (AID 493248)
[9] = target: T8, Sentrin-specific protease 1 (Homo sapiens, UniProt Q9P0U3); assay: Dose response confirmation of small molecule inhibitors of the catalytic domain of the SUMO protease, SENP1 in a FRET assay.; format: functional; settings: read-out: IC50_Mean
T8 sequence (Q9P0U3 whole entry): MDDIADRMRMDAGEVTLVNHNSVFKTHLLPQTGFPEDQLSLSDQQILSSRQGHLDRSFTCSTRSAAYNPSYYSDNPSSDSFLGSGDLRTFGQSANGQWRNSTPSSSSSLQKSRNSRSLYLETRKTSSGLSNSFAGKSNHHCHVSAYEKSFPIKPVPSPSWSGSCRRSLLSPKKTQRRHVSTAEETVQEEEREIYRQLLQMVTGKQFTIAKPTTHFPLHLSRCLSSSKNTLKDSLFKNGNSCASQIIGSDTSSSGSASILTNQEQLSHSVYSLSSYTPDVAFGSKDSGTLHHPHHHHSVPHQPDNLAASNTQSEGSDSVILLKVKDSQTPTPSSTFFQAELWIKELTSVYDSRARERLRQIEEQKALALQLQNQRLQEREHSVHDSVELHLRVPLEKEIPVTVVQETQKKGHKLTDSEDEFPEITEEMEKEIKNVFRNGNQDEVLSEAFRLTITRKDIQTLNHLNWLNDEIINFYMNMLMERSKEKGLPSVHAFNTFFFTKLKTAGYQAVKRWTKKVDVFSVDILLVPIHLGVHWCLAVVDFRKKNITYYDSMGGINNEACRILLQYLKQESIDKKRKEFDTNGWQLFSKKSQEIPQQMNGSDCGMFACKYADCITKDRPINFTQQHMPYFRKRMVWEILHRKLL

[10] = target: Glucose-6-phosphate 1-dehydrogenase (Homo sapiens, UniProt P11413); assay: inhibition of Homo sapiens G6PD, dose series – biochemical, fluorescence, selectivity assay for P. falciparum G6PD inhibitor project, dose response (AID 504792); format: functional
[11] = target: T9, Low molecular weight phosphotyrosine protein phosphatase (Homo sapiens, UniProt P24666); format: functional; settings: read-out: IC50_Mean;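 note: Dose-response confirmation assay measuring inhibition of LMPTP enzyme activity by fluorescence intensity read-out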
T9 sequence (P24666 whole entry): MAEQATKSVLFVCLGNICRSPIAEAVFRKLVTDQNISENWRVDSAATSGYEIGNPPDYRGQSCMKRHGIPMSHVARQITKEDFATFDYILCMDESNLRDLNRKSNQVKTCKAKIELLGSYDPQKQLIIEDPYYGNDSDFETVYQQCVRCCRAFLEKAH

P388/ADR = assay: cells; format: functional; settings: Mus musculus

Chain of Melanocortin receptor 4 (P32245 whole entry): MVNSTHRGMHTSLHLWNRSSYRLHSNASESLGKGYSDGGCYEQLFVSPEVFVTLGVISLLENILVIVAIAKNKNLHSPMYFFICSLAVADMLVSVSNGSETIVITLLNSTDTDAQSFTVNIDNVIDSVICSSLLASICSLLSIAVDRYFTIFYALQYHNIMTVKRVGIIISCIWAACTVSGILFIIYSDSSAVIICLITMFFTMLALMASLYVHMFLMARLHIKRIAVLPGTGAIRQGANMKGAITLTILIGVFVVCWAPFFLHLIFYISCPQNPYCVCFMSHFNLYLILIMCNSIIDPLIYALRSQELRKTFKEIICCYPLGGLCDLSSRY
Chain of Dual specificity protein phosphatase 3 (P51452 whole entry): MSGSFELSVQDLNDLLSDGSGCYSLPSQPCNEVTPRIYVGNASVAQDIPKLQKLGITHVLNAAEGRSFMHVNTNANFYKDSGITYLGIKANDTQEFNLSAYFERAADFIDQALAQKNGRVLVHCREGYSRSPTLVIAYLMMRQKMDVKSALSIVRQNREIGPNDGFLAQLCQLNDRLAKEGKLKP
Chain of FAD-linked sulfhydryl oxidase ALR (P55789 whole entry, the tested form may be a part): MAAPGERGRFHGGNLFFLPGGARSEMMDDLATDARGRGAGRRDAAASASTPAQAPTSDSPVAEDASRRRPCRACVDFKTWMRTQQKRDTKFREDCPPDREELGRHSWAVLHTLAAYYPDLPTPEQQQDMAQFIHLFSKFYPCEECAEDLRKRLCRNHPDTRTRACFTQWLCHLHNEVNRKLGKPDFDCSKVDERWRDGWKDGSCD
Chain of Glucose-6-phosphate 1-dehydrogenase (P11413 whole entry): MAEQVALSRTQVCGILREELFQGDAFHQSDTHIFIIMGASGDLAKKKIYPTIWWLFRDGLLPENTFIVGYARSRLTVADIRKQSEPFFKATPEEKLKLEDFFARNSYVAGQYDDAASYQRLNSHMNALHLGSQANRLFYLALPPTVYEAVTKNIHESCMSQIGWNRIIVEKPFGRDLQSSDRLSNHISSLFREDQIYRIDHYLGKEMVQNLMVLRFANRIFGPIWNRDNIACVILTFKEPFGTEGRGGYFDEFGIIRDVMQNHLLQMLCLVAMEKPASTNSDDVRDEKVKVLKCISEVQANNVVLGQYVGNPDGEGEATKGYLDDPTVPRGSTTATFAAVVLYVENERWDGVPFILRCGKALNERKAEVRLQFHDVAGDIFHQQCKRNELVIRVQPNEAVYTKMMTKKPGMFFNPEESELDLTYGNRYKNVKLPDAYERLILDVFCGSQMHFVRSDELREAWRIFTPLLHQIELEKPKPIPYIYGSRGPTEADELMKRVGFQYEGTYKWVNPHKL
Chain of Phospholipase A2 (P04054 whole entry): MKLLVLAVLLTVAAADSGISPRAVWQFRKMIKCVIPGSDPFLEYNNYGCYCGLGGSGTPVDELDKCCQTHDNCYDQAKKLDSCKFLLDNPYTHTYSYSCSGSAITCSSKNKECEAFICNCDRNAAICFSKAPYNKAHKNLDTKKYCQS

Compound: Cc1ccccc1NC1=NC(=O)/C(=C/c2cccn2-c2cccc(C(=O)O)c2)S1
IC50 [1]: 1.09 µM (not active) | AC50 [2]: > 20 µM (inactive) | EC50 [3]: 70 µM (active) | EC50 [4]: > 300 µM (not active) | IC50 (Cysteine protease ATG4B): 10.2 µM (active) | IC50 (Phospholipase A2): 8.6 µM (active)

Compound: Nc1cc([N+](=O)[O-])ccc1Nc1ccccc1
AC50 [8]: 0.509 µM (active) | IC50 [9]: 37.8 µM (inactive)

Compound: Cn1c(=O)[nH]c(=O)c2c1nc(SCCN1CCCCC1)n2CCCc1ccccc1
IC50 [5]: 0.57 µM (active) | IC50 [6]: 0.599 µM (active) | IC50 [7]: 34.9 µM (inactive) | IC50 [10]: > 80 µM (inactive)

Compound: CSc1sc(-c2nnc(S)n2C)c2c1C=CCC2
IC50 [11]: 38.2 µM (inactive)

Compound: COc1cccc2c1C(=O)c1c(O)c3c(c(O)c1C2=O)C[C@@](O)(C(C)=O)C[C@@H]3OC1CC(O)C(O)C(C)O1 (stereo partly specified)
GI50 (P388/ADR): 0.293 µM (active)

The remaining lines, values ahead:

IC50 [5]: 3.08 µM (active) | IC50 [6]: 11.8 µM (active) | IC50 [7]: 36.1 µM (inactive)
Compound: O=C(NCCCn1ccnc1)C(Cc1ccccc1)N1C(=O)c2ccccc2C1=O (stereo unspecified)

EC50 (Melanocortin receptor 4): > 89.2 µM (inactive)
Compound: Cc1ccc(C(=O)NCCNc2nc3cc(C)c(C)cc3cc2C)cc1

EC50 (Melanocortin receptor 4): > 89.2 µM (inactive)
Compound: O=C(CCN1C(=O)/C(=C/C=C/c2ccccc2)SC1=S)Nc1ccccn1

EC50 (Melanocortin receptor 4): > 89.2 µM (inactive)
Compound: COc1ccc2c(c1)CCc1c(C(=O)Nc3ccn(Cc4ccc(C)cc4)n3)noc1-2

IC50 [9]: 14.1 µM (active)
Compound: COCCNC(=O)c1cccc2c1C(=O)c1ccc(N3CCOCC3)cc1S2(=O)=O

Reference: ChEMBL document CHEMBL1201862, “PubChem BioAssay data set” (2004)
